Entries after “also recorded” stand apart in the source; their conditions may differ. Where two headings read alike, the source gives them in different places.
What was measured:
albumin = target: T1, albumin (Bos taurus, UniProt P02769); assay: Albumin binding in fetal calf serum, SEC-ICP-MS; type: in vitro ADME; settings: 50 μM in FCS
T1 construct: Serum proteins have a retention span of ∼2–4 min as part of the high-molecular weight fraction with albumin at ∼4 min; tissue Sigma-Aldrich; host or cells: fetal calf serum (whole serum, buffered with 150 mM phosphate buffer pH 7.4)
Method: FCS was purchased from Sigma-Aldrich and buffered with 150 mM PB pH 7.4 to guarantee a stable pH. The platinum(IV) complexes were dissolved in 150 mM PB (pH 7.4) at a concentration of 5 mM and diluted 1 : 100 in the buffered serum to obtain a final concentration of 50 μM. The samples were then incubated in an autosampler at 37 °C and analyzed for 24 h. Between each sample, a pure water blank was measured. For SEC-ICP-MS measurements an Agilent 1260 Infinity system coupled to an Agilent 7800 ICP-MS equipped with a dynamic reaction cell was used. Oxygen (purity 5.5, Messer Austria GmbH, Gumpoldskirchen, Austria) was used as a reaction gas.

[1] = Platinum distribution study in vivo by ICP-MS; set-up: species or system CT-26 tumor-bearing BALB/c mice; settings: i.v., 24 h after second dose
Method: (§1) Tumor size was determined daily via manual caliper measurement. […] Animals were euthanized via cervical dislocation.
The generation and treatment of tumor-bearing mice are outlined in the section “In vivo syngraft experiments” described above. Mouse tissues were processed as described previously.[13] Briefly, serum was isolated from peripheral blood by centrifugation (900g, 10 min, 4 °C, twice). Tissues were digested in 20% nitric acid and hydrogen peroxide using an open-vessel graphite digestion system. The platinum concentration was determined by ICP-MS analysis; for details see “Intracellular platinum accumulation in vitro by ICP-MS”.

[2] = test system: immune cell populations in tumor and spleen; assay: Immune activation and infiltration by flow cytometry; type: in vivo, CT-26-bearing BALB/c mice; settings: 24 h after second dose
Method: as §1
The generation and treatment of tumor-bearing mice are outlined in the section “In vivo syngraft experiments” above. Samples were kept on ice during the whole procedure. Tissues were prepared as described previously.[55] In brief, tumor and spleen tissues were collected and mechanically dissociated in DPBS buffer containing Ca^2+/Mg^2+ and FCS (5%). Tumor samples were digested using collagenase VIII (1 mg mL^−1) in a DPBS buffer (without Ca^2+/Mg^2+) supplemented with DNAse I (1 mg mL^−1) for 15 min at 37 °C under constant shaking. Samples were filtered using 70 μm cell strainers in a DPBS buffer (without Ca^2+/Mg^2+) containing FCS (5%), EDTA (5 mM) and DNase I (20 μg mL^−1). Subsequent washing steps were performed in DPBS buffer (without Ca^2+/Mg^2+) containing FCS (5%), EDTA (5 mM) and DNase I (20 μg mL^−1), unless indicated otherwise. Red blood cells were removed by short incubation with ACK buffer. For blocking, samples were incubated with the Ultra-LEAF purified anti-mouse CD16/CD32 antibody (clone: 93; #101330; RRID:AB_2783037; dilution: 1 : 1000) (Biolegend, San Diego, CA, USA) in the BD Horizon Brilliant Stain Buffer (#563794; BD Biosciences) for 10 min. Next, the samples were incubated with an antibody mixture in the BD Horizon Brilliant Stain Buffer for 30 min. Fluorescent dye-labeled antibodies targeting murine CD3 (17A2; #100203; RRID:AB_312661; 1 : 50), CD8a (53-6.7; #100738; RRID:AB_11204079; 1 : 160), CD19 (6D5; #115528; RRID:AB_493735; 1 : 400), CD49b (DX5; #108924; RRID:AB_2565271; 1 : 229), CD11b (M1/70; #101228; RRID:AB_893232; 1 : 80), and CD69 (H1.2F3; # 104512; RRID:AB_493564; 1 : 40) were purchased from BioLegend. The antibody targeting murine CD4 (RM4-5; # 85-0042-U100; 1 : 80) and the viability dye Ghost Dye Red 780 (#13-0865-T100; 1 : 1000) were purchased from Tonbobio (San Diego, CA, USA). The antibody targeting CD45 (30-F11; #363-0451-82; RRID:AB_2925264; 1 : 80) was purchased from Life Tech (Invitrogen). For intracellular staining of granzyme B (GzmB) (QA16A02; #372208; RRID:AB_2687032; 1 : 20) and FoxP3 (MF-14; #320014; RRID:AB_439750; 1 : 100) the True-Nuclear Transcription Factor Buffer Set (Biolegend; #424401) was used according to the manufacturer's recommendations. In brief, samples were incubated with Perm Fix Solution for 60 min at RT. Next, the samples were stained with antibodies targeting GzmB and FoxP3 (diluted in Perm buffer) for 30 min at RT. […] Next day, the samples were analyzed using a Cytek Aurora 5L (Cytek Biosciences, CA, USA) spectral flow cytometer. Data were analyzed using SpectroFlo (v3.2.1) (Cytek Biosciences) and FlowJo (v10.8.1) (FlowJo LLC, Ashland, OR, USA) software.

[3] = Cytokine and chemokine levels in plasma of treated animals, Luminex; type: in vivo, CT-26-bearing BALB/c mice; settings: 24 h after second dose
Method: Next, the ProcartaPlex (96-well) multiplex assay panel was performed according to the manufacturer's recommendations. In brief, the capture bead mix was incubated with test samples (undiluted SN or mouse plasma) or standard mix overnight. The SN of three independent experiments or the plasma of four animals per treatment group was loaded onto the multiplex assay plate. Next, biotinylated detection antibody mix and Streptavidin-PE were added to the plate. Following the recommended washing steps, the samples were incubated in a reading buffer and were measured using a Luminex xMAP platform (Bio-Plex MAGPIX Multiplex Reader; Bio-Rad Laboratories) and analyzed using xPONENT software.
as §1

[4] = Hematological analysis 24 h after the second dose; settings: two i.v. doses equimolar to 9 mg kg^−1 oxaliplatin, 24 h after second dose
Method: (§2) Mice were kept in groups of four per cage with sterilized paper-based environmental enrichment and food and water ad libitum, under pathogen-free conditions and a controlled environment with a 12 h light–dark cycle. Syngeneic models of colorectal carcinoma were generated via subcutaneous injection of CT-26 cells (0.5 × 10^6 cells in 50 μL of serum-free RPMI-1640 medium) into the right flank of 8–12 weeks old BALB/c mice. […] All animals were euthanized 24 h after the second dose. […] To determine the anticancer efficacy of the investigated compounds, treatment started 4 d after tumor implantation, when all tumors were measurable (>25 mm^3) using a twice-weekly treatment scheme for two weeks. Tumor size was determined daily via manual caliper measurement. The tumor volume was calculated as tumor volume = (length × diameter × diameter)/2. The overall condition, shape, and activity of the animals were assessed daily. Peripheral blood was collected from the submandibular vein in K3E K3EDTA tubes (Greiner Bio-One; Kremsmünster, AUT) on ice and was analyzed for hematological parameters (red blood cells (RBCs), hemoglobin (HGB), hematocrit (HCT), red cell distribution width (RDW), mean corpuscular volume (MCV), white blood cells (WBCs), lymphocytes (LYM), monocytes (MO), granulocytes (GRA), and platelets (PLT) using a Vet ABC hematology analyzer (scil Animal Care GmbH, Viernheim, Germany). EDTA-blood was centrifuged (900g, 10 min) twice and the supernatant (EDTA-plasma) was stored at −20 °C for subsequent cytokine/chemokine analysis using a Luminex detection platform. All animal experiments were performed with humane endpoints based on Federation of European Laboratory Animal Science Associations guidelines and according to the regulations of the Ethics Committee for the Care and Use of Laboratory Animals at the Medical University Vienna (proposal number BMBWF 2023–0.122.324). Animals were euthanized upon reaching a tumor volume of >1500 mm^3, a loss in body weight (>20%), tumor ulceration or other indications of deteriorated health. Animals were euthanized via cervical dislocation.

[5] = Hematological analysis after long-term treatment; settings: 72 h after the fourth dose
Method: as §2

CT-26 tumors = assay: Anticancer efficacy in vivo, syngeneic colorectal carcinoma; set-up: species or system BALB/c mice; settings: i.v. twice a week for two weeks, equimolar to 9 mg kg^−1 oxaliplatin
Method: as §1

[6] = test system: THP1-Dual, HCT116, HCT116/OxR and CT-26 cells; assay: MTT-based cell viability assay, 72 h, statements over all investigated cell lines; set-up: species or system human and murine; settings: none of the investigated cell lines vulnerable, read-out: IC50 of free single agent
Method: Cell models were seeded (2–2.5 × 10^3 cells per well) in 96-well plates. After 24 h of recovery, the compounds were applied at the concentrations indicated in triplicate. Cell viability was determined after 72 h of continuous drug incubation using an MTT-based cell viability assay (EZ4U, Biomedica, Vienna, Austria) according to the manufacturer's recommendations. Absorbance was measured at 450 nm (vs. 620 nm as reference) using a multimode microplate reader (Tecan Spark, Zurich, Switzerland). Half-maximal inhibitory concentrations (IC50 values) were derived via interpolation from dose–response curves, modeled with the four-parameter logistic (4PL) nonlinear regression model in GraphPad Prism (La Jolla, CA, USA) from at least three independent experiments.

[7] = test system: IRF pathway (STING-dependent); assay: IRF-inducible luciferase reporter in THP1-Dual reporter cell model; type: cell-based, human
Excerpt: (§3) The THP1-Dual™ reporter cell model for simultaneously monitoring the activity of the IRF and NF-κB pathway contains an IRF-inducible luciferase reporter under the control of an ISG54 minimal promoter in conjunction with five interferon (IFN)-stimulated response elements, and an induced SEAP driven by an IFN-β minimal promoter fused to five copies of the NF-κB consensus transcriptional response element and three copies of the c-Rel binding site. The luciferase and SEAP reporter are measurable in the cell culture supernatant using QUANTI-Luc™ 4 Lucia/Gaussia (InvivoGen) and QUANTI-Blue™ (InvivoGen) solution, respectively. Cells were seeded at 1 × 10^5 cells per well in 96-well plates in RPMI-1640 medium, supplemented with 10% FCS, L-glutamine and Pen-Strep. After 2 h of recovery, the compounds were applied at the concentrations indicated in triplicate. The cell culture supernatant (SN) was collected after 24 h of drug incubation and secreted luciferase and SEAP reporter levels were measured according to the manufacturer's recommendations. In brief, for the detection of luciferase, 20 μL of SN were transferred into 96-well white opaque plates, and 30 μL of QUANTI-Luc™ reagent were added per well using an injector module in a multimode microplate reader (Tecan Spark, Zurich, Switzerland). Luminescence was recorded at a reading time of 0.1 second. For the detection of SEAP, 10 μL of SN were transferred to 96-well plates and 90 μL of QUANTI-Blue™ were added per well. Absorbance was measured at 620 nm. Half-maximal effective concentrations (EC50 values) were derived via interpolation from dose–response curves, modeled with the four-parameter logistic (4PL) nonlinear regression model in GraphPad Prism. For comparison, the maximal response rate of the prodrug was depicted in the percent of the maximal response rate achieved by SR-717 or MSA-2 (%EMAX) at the respective concentrations tested. Activatability, tested in co-incubation experiments with AA (50 μM), was expressed as the area under the curve (AUC) ratio of +AA vs. −AA-treated cells. The STING-dependency of the reporter induction was tested by co-administration of the STING inhibitor H-151 (10 μM), added to the cell culture medium 2 h before applying the investigated compounds. In addition to monitoring secreted reporter levels, the cell viability of the reporter cells was determined after 24 h of drug treatment by an MTT-based cell viability assay.

[8] = test system: NF-κB pathway (STING-dependent); assay: NF-κB-inducible SEAP reporter in THP1-Dual reporter cell model; type: cell-based, human
Excerpt: as §3

[9] = test system: IRF pathway (STING-dependent); set-up: method as in PMID 32820126; settings: read-out: IRF EC50, previous report; cited from earlier work
[10] = two doses, vs Ox-MSA-PEG-Ca or oxaliplatin
[11] = 24 h, maximal response relative to SR-717
[12] = 24 h exposure, normalized to cell viability, oxaliplatin in combinations 5 μM

T1 sequence (P02769 25-607): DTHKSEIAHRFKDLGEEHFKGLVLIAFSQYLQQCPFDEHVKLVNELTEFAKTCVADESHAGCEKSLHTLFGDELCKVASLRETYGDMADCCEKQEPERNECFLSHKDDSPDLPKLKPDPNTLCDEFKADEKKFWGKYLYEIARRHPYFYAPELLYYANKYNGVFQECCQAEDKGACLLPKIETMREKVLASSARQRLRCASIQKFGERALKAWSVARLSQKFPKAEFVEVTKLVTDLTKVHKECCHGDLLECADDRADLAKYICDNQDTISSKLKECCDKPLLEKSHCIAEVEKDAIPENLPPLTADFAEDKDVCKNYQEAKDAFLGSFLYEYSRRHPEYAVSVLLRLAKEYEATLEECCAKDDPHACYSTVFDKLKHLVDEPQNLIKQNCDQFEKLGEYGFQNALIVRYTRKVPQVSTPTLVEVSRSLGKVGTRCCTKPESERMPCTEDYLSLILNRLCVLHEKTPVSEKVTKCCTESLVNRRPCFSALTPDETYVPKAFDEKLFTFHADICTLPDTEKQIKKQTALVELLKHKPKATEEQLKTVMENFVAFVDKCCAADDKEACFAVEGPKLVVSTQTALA

COc1cc2cc(C(=O)CCC(=O)[O][Pt-2]34([O]C(=O)NCCOCCOCCOCCOCCN5C(=O)C=CC5=O)([NH2+][C@@H]5CCCC[C@H]5[NH2+]3)[O]C(=O)C(=O)[O]4)sc2cc1OC [Ox-MSA-Mal, (OC-6-34)-[(1R,2R)-1,2-cyclohexanediamino]-oxalato-[4-(5,6-dimethoxybenzo[b]thiophen-2-yl)-4-oxobutylcarboxylato]-[(14-(2,5-dioxo-2,5-dihydro-1H-pyrrol-1-yl)-3,6,9,12-tetraoxatetradecyl)carbamato]platinum(IV)]
platinum bound to albumin (albumin; 150 mM PB pH 7.4, 37 °C, 0 h time point): approximately 99%
stability of albumin drug conjugate (albumin; 37 °C, no release of platinum from the protein): stable over 24 h
liver platinum level relative to tumor ([1]; two doses equimolar to 9 mg kg^−1 oxaliplatin): 1.4 fold
platinum accumulation in peripheral blood cells [1, 10]: clearly lowered accumulation
platinum levels in serum and tumor [1, 10]: distinctly elevated platinum levels
FoxP3+ CD4+ T cell compartment in the spleen [2]: selectively elevated
plasma chemokines CXCL9 and CXCL11 [3]: most strongly activated
anemia [4]: not
RBC toxicity [5]: strongly reduced
platelet counts (PLT) / thrombocytopenia [5]: not evident
absolute counts of white blood cells and subpopulations ([5]; i.v. twice a week for two weeks): induced an increase
tumor growth (CT-26 tumors): distinctly stronger anticancer efficacy; also recorded: significantly inhibited colorectal tumor growth

O=C(Nc1cc(F)c(F)cc1C(=O)[O-])c1ccc(-n2ccnc2)nn1.[Li+] [SR-717]
IC50 [6]: > 75000 nM
IRF EC50 ratio fold SR-717 ([7]; 24 h): 1.0 fold
activation of IRF signaling pathway ([7]; 24 h): robustly activated
IRF %EMAX of SR-717 [7, 11]: 100%
EC50 [7, 12]: 2900 nM
impact of reducing conditions on IRF-induced reporter signal (AUC ratio +AA/−AA) ([7]; AA 50 μM): no notable modulation
NF-κB EC50 ratio fold SR-717 ([8]; 24 h): 1.0 fold
activation of NF-κB signaling pathway ([8]; 24 h): robustly activated
NF-κB %EMAX of SR-717 [8, 11]: 100%
EC50 [8, 12]: 5800 nM
EC50 [9]: 2100 nM

Source: publication PMC11969438 (Inorganic Chemistry Frontiers, 2025)
